We go through two compounds from US8414883B2, “Parvovirus cancer therapy and combination with chemotherapy” (priority 2007, dated 2013).

By EC50 is commonly meant the concentration that produces a half-maximal response.

“Also recorded” adds a separate entry of the source. Read-outs that look alike come from different tables or passages of the source.

One data set deals with U343MG cells. Description: MTT survival of U343MG cells. The class given is cell-based, human. The conditions noted are these: U343; 6 days; H-1PV 5 pfU/cell, 25 μM TMZ. How it is done:
The percentage of surviving U343MG cells [%] 3 days (A) and 6 days (B) after treatment with H-1PV (Virus), combined treatment with H-1PV and TMZ (V+TMZ), and treatment with TMZ only (TMZ) is shown.
(§1) Initially, the rates of survival of the cell lines used in the study were determined using MTT assays in order to check whether these cell lines are sensitive for H-1PV infection and Temozolomide (TMZ) treatment. In addition, the rates of survival after combined treatment with H-1PV and TMZ were determined. […] The graphs of FIGS. 7-11 depict the results after 3 and 6 days, respectively. After 3 days of treatment distinct effects can already be observed. After 6 days the experiments were terminated since control cells were already confluent. In addition, after 6 days further analyses could not be carried out due to the very low rate of survival (depending on the particular cell line).

The next data set deals with U87MG cells. Description: MTT survival of U87MG cells. The class given is cell-based, human. The conditions noted are these: 3 days, H-1PV 5 pfU/cell, 25 μM TMZ. Here is the method: The percentage of surviving U87MG cells [%] 3 days (A) and 6 days (B) after treatment with H-1PV (Virus), combined treatment with H-1PV and TMZ (V+TMZ), and treatment with TMZ only (TMZ) is shown.
as §1

Another data set deals with U373MG cells. Description: MTT survival of U373MG cells. The note with it: U373; 6 days; H-1PV 5 pfU/cell, 25 μM TMZ. The class given is cell-based, human. How it is done: The percentage of surviving U373MG cells [%] 3 days (A) and 6 days (B) after treatment with H-1PV (Virus), combined treatment with H-1PV and TMZ (V+TMZ), and treatment with TMZ only (TMZ) is shown.
as §1

A further data set deals with T3M-4 cells. Description: MTT cytotoxicity of H-1PV, gemcitabine and their combination, T3M-4. The class given is cell-based, human. How it is done: (§2) Survival was measured using MTT assays performed 72 h after infection, in comparison with mock-treated cultures (100%), and is inversely expressed as cell death rate. The data presented are means from 3 independent experiments carried out in quadruplicates.
(§3) For cytotoxicity assessment, cells were seeded in 96-well plates at a density of 2×10^3 cells per well and treated as indicated in the Figure Legends. Cell viability was determined by the colorimetric MTT (3-(4,5-dimethylthiazolyl-2)-2,5-diphenyltetrazolium bromide) assay, as recommended by the manufacturer (Sigma, Deisenhofen, Germany).
(§4) Means and standard deviations (SD) were calculated from triplicate in vitro experiments. […] The isobologram was created from the data obtained for the combination of the two agents. […] CI=1 represents the conservation isobologram and indicates additive effects. CI values below 1 indicate higher than the expected additive effect (synergy).
Drug sensitivity of parental and resistant cells was assessed in both MTT and clonogenic survival assays.

A further data set deals with SU86.86 cells. Description: MTT cytotoxicity of H-1PV, gemcitabine and their combination, SU86.86. The class given is cell-based, human. Here is the method:
as §2, §3, §4

For another data set, the system named is Panc-1 cells. Description: MTT cytotoxicity of H-1PV, gemcitabine and their combination, Panc-1. The class given is cell-based. The note with it: Homo sapiens. Here is the method:
as §2, §3, §4

The next data set has as its system BxPC3 cells. Description: MTT cytotoxicity of H-1PV, gemcitabine and their combination, BxPC3. The conditions noted are these: Homo sapiens. The class given is cell-based. Here is the method: as §2, §3, §4
Data set [1] in a line: Toxicological assessment of blood markers in PDAC-bearing rats. The conditions noted are these: rat model. The class given is in vivo, Lewis rats. Here is the method: Blood samples were analyzed for: (A) red blood cell (RBC), platelet, and white blood cell (WBC) counts and related parameters; (B) liver (aspartate amino transferase [ASAT], alanine amino transferase [ALAT]) and kidney (Creatinine) markers. The data shown are means with SD bars.
H-1PV was inoculated intratumorally (i.t.). Blood samples were taken from animal tail vein 2 weeks after the last therapeutic treatment. Toxicological markers were assayed in Strasbourg University Hospital using automated clinical laboratory analysis (Biochemical multiparametric device Biochime ADVIA 160, Siemens, Cergy Pontoise, France).

For a further data set, the system named is HA-RPC cells. Description: MTT cytotoxicity on rat PDAC cells. The class given is cell-based. The conditions noted are these: compared with the human PDAC cells. Here is the method:
as §3

Another data set relates to Colo357 cells. Description: MTT cytotoxicity of H-1PV, gemcitabine and their combination, Colo357. The class given is cell-based. The conditions noted are these: Homo sapiens. Here is the method: as §2, §3, §4
In data set [2] the test system is intrapancreatic HA-RPC tumors. Description: Survival of PDAC-bearing rats after combined gemcitabine and H-1PV. The conditions noted are these: vs. mock treatment or gemcitabine monotherapy. The class given is in vivo, Lewis rats. How it is done: Animal survival was monitored over a period of 100 days and is presented as Kaplan-Meyer curves, with the median survival and P values indicated below.
Male Lewis rats (Janvier, Le Genest Saint Isle, France) weighing 180-200 g were used for pancreatic carcinoma implantation. 5.10^6 HA-RPC cells were injected in the pancreatic parenchyma. Tumor progression is confined to the pancreatic tail for the first 3 weeks after implantation, leading to lymph node invasion during the 4th week. Liver metastases appear at weeks 5-6 and death with lung metastasis occurs within weeks 6-9.[17] Animals were kept under conventional conditions (temperature 22±2° C., relative humidity 55±10%, dark-light rhythm of 12 hr) with unrestricted access to a balanced pellet diet and water. Animal experiments were performed according to the French and European Community directives for animal care (number 86/609/EEC of Nov. 24, 1986). […]
Mean and standard deviations from triplicate in vitro experiments were calculated. Difference in tumour volume, determined in vivo through mCT-scan size measurements, was tested using a one-way analysis of variance followed by a parametric Student's unpaired t test as Bartlett's test indicated homogeneity of variance. […] The survival curves were generated using the Kaplan-Meier method, and the differences between the curves were assessed by the log-rank test. […]

The test system of a further data set is MiaPaCa-2 cells. Description: MTT cytotoxicity of H-1PV, gemcitabine and their combination, MiaPaCa-2. The class given is cell-based, human. Here is the method: as §2, §3, §4

Consider `Cn1nnc2c(C(N)=O)ncn2c1=O` [TMZ, Temozolomide], for which the cells killed result in the data set with U343MG cells is on record as “more than 80%”. Further, the “cells lysed / killed” value in the data set on U87MG cells is reported as “about 20%”. Further, in the data set on U373MG cells, the “cells lysed / cytotoxic effect” value is listed as “no cytotoxic effect; also recorded: did not result in cell death”.
As for `Nc1ccn([C@@H]2O[C@H](CO)[C@@H](O)C2(F)F)c(=O)n1` [gemcitabine], the EC50 amounted to 1.2 ng/mL in the data set on T3M-4 cells (Homo sapiens, T3M4, read-out: EC50 gemcitabine monotherapy (in brackets)); 2.5 ng/mL with SU86.86 cells (Homo sapiens, SU.86.86, read-out: EC50 gemcitabine monotherapy (in brackets)); 400 ng/mL with Panc-1 cells (PANC-1, read-out: EC50 mono. gemcitabine); 200 ng/mL in the data set on Panc-1 cells (read-out: EC50 comb. 1 gemcitabine, Panc-1, combined with H-1PV MOI 1); 60 ng/mL in the data set on Panc-1 cells (read-out: EC50 comb. 2 gemcitabine, Panc-1, combined with H-1PV MOI 10); 20 ng/mL with BxPC3 cells (BXPC-3, read-out: EC50 comb. 1 gemcitabine, BxPC3, combined with H-1PV MOI 1). For the same compound, the EC50 in the data set on BxPC3 cells (BXPC-3, read-out: EC50 comb. 2 gemcitabine, BxPC3, combined with H-1PV MOI 10) worked out at 7 ng/mL; in the data set on BxPC3 cells (BXPC-3, read-out: EC50 mono. gemcitabine), 25 ng/mL; in the data set on Colo357 cells (COLO357, read-out: EC50 mono. gemcitabine), 1.5 ng/mL; with Colo357 cells (read-out: EC50 comb. 1 gemcitabine, Colo357, combined with H-1PV MOI 1), 1.3 ng/mL; in the data set with Colo357 cells (read-out: EC50 comb. 2 gemcitabine, Colo357, combined with H-1PV MOI 10) it was 0.6 ng/mL; in the data set on MiaPaCa-2 cells (Homo sapiens, MIA PaCa-2, read-out: EC50 gemcitabine monotherapy (in brackets)), 9 ng/mL. The “EC75 comb. 1 gemcitabine” value was determined as 2.4 ng/mL with T3M-4 cells (T3M-4, combined with H-1PV MOI 1); 8.0 ng/mL with SU86.86 cells (SU86.86, combined with H-1PV MOI 1); 18 ng/mL with MiaPaCa-2 cells (MiaPaCa-2, combined with H-1PV MOI 1). In addition, the “EC75 comb. 2 gemcitabine” value is 1.5 ng/mL with T3M-4 cells (T3M-4, combined with H-1PV MOI 10); 1.3 ng/mL in the data set on SU86.86 cells (SU86.86, combined with H-1PV MOI 10); 2.0 ng/mL with MiaPaCa-2 cells (MiaPaCa-2, combined with H-1PV MOI 10). The EC75 mono. gemcitabine in the data set on T3M-4 cells (T3M-4, gemcitabine alone, MTT) stood at 2.5 ng/mL; in the data set on SU86.86 cells (SU86.86, gemcitabine alone, MTT) it was 17 ng/mL; with MiaPaCa-2 cells (MiaPaCa-2, gemcitabine alone, MTT) it was 30 ng/mL. The “bilirubin, ASAT, and ALAT levels” value in data set [1] (2 weeks after last treatment) is recorded as “elevated”. For the same compound, in [1] (2 weeks after last treatment), the “reticulocyte and monocyte levels” value was “drop”. Moreover, the Creatinine levels result in data set [1] (kidney clearance) is given as “remained stable”. In the data set on HA-RPC cells, the “sensitivity to virus and gemcitabine toxicity” value is “same range of sensitivity”. For the same compound, the “survival of PDAC-bearing rats” value in [2] is recorded as “transient protection”.
